Source: patent US20030069194A1, “Inhibition of viral replication by targeting RNA-DNA complexes” (priority 2001, published 2003)
Counter-ions that a name gives are not always drawn.

Assays:
[1] = system: 18C-18D duplex (RNase H substrate of HIV-1 RT); assay: RT-induced RNase H cleavage of the 18C-18D duplex (gel assay); assay type: biochemical; conditions: 18C-18D duplex; aminoglycosides 2.0 mM; FIG. 2b, 2c
From the text: The second model oligonucleotide was a 18mer chimeric duplex (18C-18D). 18C-18D mimics a RNase H substrate during plus-strand strong-stop synthesis (FIG. 2a), which occurs following minus-strand DNA synthesis. Fedoroff, O. Y., et. al., B. R. Structural variation among retroviral primer-DNA junctions: Solution structure of the HIV-1 (−)-strand Okazaki fragment r(gcca)d(CTGC)-d(GCAGTGGC), Biochemistry 35,11070-11080 (1996). For the 18C-18D duplex, RT cleaves the RNA portion of the chimeric strand (18C) opposite the DNA strand (18D) at only a single site (FIGS. 2a, b), in marked contrast to the three cleavage sites observed in the 18C-18Rduplex. This unique cleavage site lies between base positions +1 and +2 (counting from the RNA-DNA junction in the 5′ direction on the cleaved chimeric strand). Furfine, E. S. & Reardon, J. E., Human immunodeficiency virus reverse transcriptase ribonuclease H: Specificity of tRNA(Lys3)-primer excision, Biochemistry 30, 7041-7046 (1991); Smith, J. S. & Roth, M. J. Specificity of human immunodeficiency virus-1 reverse transcriptase-associated ribonuclease H in removal of the minus-strand primer tRNA(Lys3), J. Biol. Chem. 267, 15071-15079 (1992). […] As noted above for the 18C-18R duplex, this hierarchy of cleavage inhibition correlates with the relative binding affinities of the three ligands for the 18C-18D duplex.
(§1) Recombinant HIV-1 RT p66 was isolated from Escherichia coli JM 109. Pandey, V. N. et al, Role of methionine 184 of human immunodeficiency virus type-1 reverse transcriptase in the polymerase function and fidelity of DNA synthesis, Biochemistry 35, 2168-2179 (1996). The 18C and 18R oligonucleotides were purchased from Dharmacon Research, Inc. (Lafayette, Colo.). The 18D oligonucleotide was obtained from Integrated DNA Technologies, Inc. (Coralville, Iowa). Neomycin trisulfate trihydrate, the free base of tobramycin, paromomycin sulfate, and kanamycin B sulfate were obtained from Fluka, while kanamycin A monosulfate and ribostamycin sulfate dihydrate were obtained from Sigma.
(§2) The RNase H activity of RT was assayed in a 10 μl reaction mixture containing 110 mM PIPES (pH 6.0) and 5 mM MgCl2. Ten pmol of either 18C or 18R were ^32P-labeled at the 5′ end using T4 polynucleotide kinase. For the cleavage experiments, different aminoglycosides were mixed with 0.5 μM of target duplex. A small amount of RT, 0.1 μg, was then added to initiate the cleavage reaction. After incubation at 37° C. for 30 min, the reaction was stopped by addition of 3 M urea containing a mixture of bromophenol blue and xylene cyanol. Denaturation of the 18C-18R duplex required the addition of 5 M urea as well as heating at 95° C. for 5 min prior to gel loading. The cleavage products were resolved in a 10% polyacrylamide gel containing 8 M urea. The gels were subsequently analyzed using a phosphoimager (Molecular Dynamics, Inc.).
To determine the nature of the aminoglycoside-induced inhibition of RT-catalyzed RNase H cleavage, the impact of RT concentration on neomycin-induced inhibition was examined. […] In the presence of 1 mM neomycin, increasing the concentrations of RT overcomes the RNase H inhibitory effect of the drug.

[2] = system: 18C-18R duplex (RNase H substrate of HIV-1 RT); assay: RT-induced RNase H cleavage of the 18C-18R duplex (gel assay); assay type: biochemical; conditions: 18C-18R duplex; aminoglycosides 312.5 μM; FIG. 1b, 1d
From the text: The first model oligonucleotide was a 18mer chimeric duplex (18C-18R). 18C-18R mimics a RNase H substrate during minus-strand strong-stop synthesis. (FIG. 1a). Mueller, U. et al. Crystal structure of an eight-base pair duplex containing the 3′-DNA RNA-5′ junction formed during initiation of minus-strand synthesis of HIV replication, Biochemistry 37,12005-12011 (1998). […] Note that RT cleaves the RNA strand (18R) opposite the chimeric RNA-DNA strand (18C) at three sites (FIGS. 1a, b). The primary cleavage site lies between base positions +1 and +2 (counting from the RNA-DNA junction in the 5′ direction on the cleaved RNA strand). Two other minor cleavage sites lie between positions +3 and +4 and between positions −1 and +1, with the former site being cleaved to a greater extent than the latter site. Götte, M. et al., HIV-1 Reverse transcriptase-associated RNase H cleaves RNA/RNA in arrested complexes: Implications for the mechanism by which RNase H discriminates between RNA/RNA and RNA/DNA, EMBO J. 14, 833-841 (1995).
as §1
as §2, with “10” for “110”

NC[C@H]1O[C@H](O[C@H]2[C@H](O[C@@H]3O[C@H](CO)[C@@H](O)[C@H]3O)[C@@H](O)[C@H](N)C[C@@H]2N)[C@H](N)[C@@H](O)[C@@H]1O [ribostamycin, ribostamycin sulfate dihydrate]
hierarchy of inhibition of RT-induced cleavage [1]: neomycin>paromomycin>ribostamycin | hierarchy of the extent of inhibition of RT-induced cleavage [2]: neomycin>paromomycin>tobramycin>kanamycin B>ribostamycin>>kanamycin A

NC[C@H]1O[C@H](O[C@H]2[C@H](O)[C@@H](O[C@H]3O[C@H](CO)[C@@H](O)[C@H](N)[C@H]3O)[C@H](N)C[C@@H]2N)[C@H](N)[C@@H](O)[C@@H]1O.O=S(=O)(O)O [kanamycin B, kanamycin B sulfate]
hierarchy of the extent of inhibition of RT-induced cleavage [2]: neomycin>paromomycin>tobramycin>kanamycin B>ribostamycin>>kanamycin A

NC[C@H]1O[C@H](O[C@H]2[C@H](O)[C@@H](O[C@H]3O[C@H](CO)[C@@H](O)[C@H](N)[C@H]3O)[C@H](N)C[C@@H]2N)[C@H](O)[C@@H](O)[C@@H]1O.O=S(=O)(O)O [kanamycin A, kanamycin A monosulfate]
hierarchy of the extent of inhibition of RT-induced cleavage [2]: neomycin>paromomycin>tobramycin>kanamycin B>ribostamycin>>kanamycin A

NC[C@H]1O[C@H](O[C@H]2[C@H](O)[C@@H](O[C@H]3O[C@H](CO)[C@@H](O)[C@H](N)[C@H]3O)[C@H](N)C[C@@H]2N)[C@H](N)C[C@@H]1O [tobramycin]
hierarchy of the extent of inhibition of RT-induced cleavage [2]: neomycin>paromomycin>tobramycin>kanamycin B>ribostamycin>>kanamycin A
